This is an account of results in the supplement of paper PMC13380429.

Common to all, as to conditions: 72 h
The subject of assay [1] is U2OS. Nature of the assay: drug sensitivity score (DSS) for viability; higher = more toxic; extreme values may be limits of the assay.
The test system of assay [2] is Vero E6. Described as above.
Assay [3] concerns Calu-3. Described as above.
Assay [4] relates to HepG2. The description is as above.
Assay [5] has as its system Caco-2. The description is as above.
Assay [6] concerns Vero E6. Nature of the assay: relative viability EC50 (midpoint between 100% and the lowest measured viability); higher = less toxic.
The test system of assay [7] is Calu-3. Described as above.
For assay [8], the system named is U2OS. Nature of the assay: cell viability relative to DMSO; higher = less toxic.
Assay [9] has as its system Vero E6. The assay is described as above.
The subject of assay [10] is Calu-3. Described as above.
The subject of assay [11] is Caco-2. Described as above.
The test system of assay [12] is HepG2. The assay is described as above.
Assay [13] concerns U2OS. Nature of the assay: relative viability EC50 (midpoint between 100% and the lowest measured viability); higher = less toxic.
The subject of assay [14] is Caco-2. The assay is described as above.
Assay [15] relates to HepG2. Described as above.

Take `CC(O)(CS(=O)(=O)c1ccc(F)cc1)C(=O)Nc1ccc(C#N)c(C(F)(F)F)c1` (configuration not stated) [bicalutamide]: the drug sensitivity score with U2OS [1], in the assay with Vero E6 [2], in the assay on Calu-3 [3] and in the assay with HepG2 [4] was 0 throughout.
For orientation: cell viability means a read-out of living cells in per cent, often relative to untreated cells. Consider `O=C(/C=C/c1ccc(O)c(O)c1)OCCc1ccccc1` [caffeic-acid-phenethyl-ester], for which the drug sensitivity score turned out to be 1.4 in the assay with U2OS [1]; 0 with Vero E6 [2]; 0 in the assay on Calu-3 [3]; 3.2 with Caco-2 [5]; 2.3 in the assay with HepG2 [4]. Moreover, the “relative viability EC50” value in the assay on Vero E6 [6] and with Calu-3 [7] was greater than 10000 nM in each case. Moreover, the cell viability with U2OS [8] (1 nM) came out at 98.4%; in the assay with U2OS [8] (10 nM), 102%; in the assay on U2OS [8] (100 nM) it was 98.9%; with U2OS [8] (1000 nM), 99.2%; with U2OS [8] (10000 nM), 69.9%; with Vero E6 [9] (1 nM), 96.9%. Moreover, the cell viability in the assay on Vero E6 [9] (10 nM) is 101%; in the assay on Vero E6 [9] (100 nM) it was 96.4%; with Vero E6 [9] (1000 nM), 96.4%; in the assay on Vero E6 [9] (10000 nM) it was 90.6%; with Calu-3 [10] (1 nM) it was 95.4%; with Calu-3 [10] (10 nM) it was 97.4%. Besides, the cell viability in the assay on Calu-3 [10] (100 nM) came to 99.1%; with Calu-3 [10] (1000 nM), 94.4%; in the assay with Calu-3 [10] (10000 nM), 90.3%; in the assay on Caco-2 [11] (1 nM) it was 92%; in the assay on Caco-2 [11] (10 nM), 99.6%; with Caco-2 [11] (100 nM), 101%. The cell viability in the assay with Caco-2 [11] (1000 nM) was 88.2%; in the assay on Caco-2 [11] (10000 nM), 66.9%; in the assay on HepG2 [12] (1 nM) it was 92%; with HepG2 [12] (10 nM) it was 106%; in the assay with HepG2 [12] (100 nM), 99.6%; in the assay on HepG2 [12] (1000 nM), 90.2%. In addition, in the assay with HepG2 [12] (10000 nM), the cell viability turned out to be 73.9%.
On to `CN(C)CCCN1c2ccccc2Sc2ccc(Cl)cc21` [chlorpromazine], for which the drug sensitivity score in the assay on U2OS [1] was 0.1; with Vero E6 [2], 2.2; in the assay on Calu-3 [3], 0.9; in the assay with Caco-2 [5], 0; with HepG2 [4], 3.9. Further, the “relative viability EC50” value with U2OS [13] and in the assay on Caco-2 [14] was greater than 10000 nM each time. Also, the cell viability came out at 98.9% with U2OS [8] (1 nM); 100% in the assay with U2OS [8] (10 nM); 93.6% in the assay on U2OS [8] (100 nM); 102% in the assay on U2OS [8] (1000 nM); 86.2% in the assay with U2OS [8] (10000 nM); 98.5% in the assay on Vero E6 [9] (1 nM). Besides, the cell viability came out at 98.8% in the assay on Vero E6 [9] (10 nM); 97.4% with Vero E6 [9] (100 nM); 99.6% with Vero E6 [9] (1000 nM); 56.9% in the assay on Vero E6 [9] (10000 nM); 110% in the assay with Calu-3 [10] (1 nM); 97% with Calu-3 [10] (10 nM). Besides, the cell viability in the assay on Calu-3 [10] (100 nM) came out at 109%; in the assay with Calu-3 [10] (1000 nM) it was 102%; in the assay with Calu-3 [10] (10000 nM), 73.8%; in the assay on Caco-2 [11] (1 nM), 96.3%; with Caco-2 [11] (10 nM) it was 97.3%; with Caco-2 [11] (100 nM), 96.5%. Further, the cell viability came out at 105% in the assay on Caco-2 [11] (1000 nM); 88.9% in the assay on Caco-2 [11] (10000 nM); 96.5% in the assay with HepG2 [12] (1 nM); 102% with HepG2 [12] (10 nM); 105% with HepG2 [12] (100 nM); 91.3% with HepG2 [12] (1000 nM). For the same compound, in the assay on HepG2 [12] (10000 nM), the cell viability was found to be 52.4%.
As to `CS[C@H]1SC[C@H]2C(=O)N(C)[C@@H](C(C)C)C(=O)OC[C@@H](NC(=O)c3cnc4ccccc4n3)C(=O)N[C@@H](C)C(=O)N(C)[C@@H]1C(=O)N(C)[C@@H](C(C)C)C(=O)OC[C@@H](NC(=O)c1cnc3ccccc3n1)C(=O)N[C@@H](C)C(=O)N2C` [echinomycin], the drug sensitivity score in the assay with U2OS [1] is 47.9; in the assay on Vero E6 [2], 31.7; with Calu-3 [3] it was 41.3; in the assay with Caco-2 [5], 22.8; in the assay with HepG2 [4], 42.9. Moreover, the “relative viability EC50” value in the assay on U2OS [13] was 1.1 nM; with Vero E6 [6], 24 nM; in the assay on Calu-3 [7], less than 1 nM; in the assay with HepG2 [15], 1.8 nM. Moreover, the cell viability turned out to be 54.1% with U2OS [8] (1 nM); 0.5% with U2OS [8] (10 nM); 0.6% in the assay with U2OS [8] (100 nM); 2.3% in the assay with U2OS [8] (1000 nM); 1.8% with U2OS [8] (10000 nM); 104% in the assay with Vero E6 [9] (1 nM). Moreover, the cell viability with Vero E6 [9] (10 nM) is 90.4%; in the assay with Vero E6 [9] (100 nM), 2.1%; in the assay on Vero E6 [9] (1000 nM), 4.6%; in the assay on Vero E6 [9] (10000 nM) it was 1%; in the assay on Calu-3 [10] (1 nM) it was 57.6%; with Calu-3 [10] (10 nM), 16%. Also, the cell viability in the assay with Calu-3 [10] (100 nM) worked out at 27.3%; with Calu-3 [10] (1000 nM) it was 35.5%; in the assay on Calu-3 [10] (10000 nM) it was 36.2%; in the assay with Caco-2 [11] (1 nM), 63.1%; in the assay with Caco-2 [11] (10 nM), 54.7%; in the assay with Caco-2 [11] (100 nM), 57.2%. Also, the cell viability in the assay with Caco-2 [11] (1000 nM) came to 63.2%; with Caco-2 [11] (10000 nM) it was 75.9%; with HepG2 [12] (1 nM), 77.1%; in the assay with HepG2 [12] (10 nM), 9.7%; with HepG2 [12] (100 nM) it was 6.7%; with HepG2 [12] (1000 nM), 7%. For the same compound, the cell viability in the assay with HepG2 [12] (10000 nM) came out at 7.7%.
As for `C[C@]12CC[C@@H]3c4ccc(O)cc4CC[C@H]3[C@@H]1CCC2=O` [estrone], the drug sensitivity score in the assay with U2OS [1], in the assay on Vero E6 [2], in the assay with Calu-3 [3] and with HepG2 [4] was 0 in each case.
Take `COc1cc2ncnc(Nc3ccc(F)c(Cl)c3)c2cc1OCCCN1CCOCC1` [gefitinib]: the drug sensitivity score in the assay with U2OS [1] is 2.1; in the assay on Vero E6 [2], 9.3; in the assay with Calu-3 [3], 13.1; in the assay on Caco-2 [5] it was 4.1; with HepG2 [4], 3.9. Moreover, in the assay with Calu-3 [7], the “relative viability EC50” value was 414 nM.
